# Assay results as given in patent US20250179024A1, “AMYLOID AND ASSOCIATED PATHOLOGY MODULATORS AND METHODS THEREOF” (Jawaharlal Nehru Centre for Advanced Scientific Research, priority 2022, published 2025).
# How the values were obtained:
# Format in all cases: cell-based
# SH-SY5Y cells [1] = test: Mitochondrial membrane potential (MMP) measurement, Mitotracker Orange; conditions: Aβ 20 μM, 18 h; for MMP relative to control (100%): Aβ alone 70%
# Method: For quantifying relative change in MMP, SH-SY5Y cells were seeded into 96 plates and incubated. After 24 h, cells were treated with Aβ (20 μM) alone and with two different concentrations of NMIs (M3) (20 and 50 μM) for 18 h and stained with Mitotracker Orange (500 nM) in media for 15 min followed by washing with PBS twice. Then quickly fluorescence was measured (λex=554 nm and λem=576 nm) by Spectramax multi-well plate reader in well scan mode (>80 points, with 6 flashes per read) and averaged the value. The relative fluorescence of treatments in comparison with control was calculated to assess the change in MMP.
# For fluorescence imaging, cells were seeded into glass bottom dishes and incubated for 24 h. Then treated with Aβ (20 μM) alone and with NMIs (M3) (50 μM) in low serum media for 18 h and stained with Mitotracker Orange (500 nM) in media for 15 min. Cells were washed with PBS thrice and imaged in live cell set up in Rhodamine channel using 63× oil immersion using Leica DMi8 fluorescence microscope.
# The compound M3 with aggregation modulation and antioxidant activity potentially prevent Aβ mediated mitochondrial damage. Quantitatively measurement of mitochondrial membrane potential (MMP) changes was carried out. SH-SY5Y cells were cultured in 96 well plate, treated with Aβ (20 μM) alone and with different concentrations of M3 (20 μM and 50 μM) for 18 h and relative MMP was measured using MitoOrange fluorescence, a MMP-dependent mitochondrial probe. MMP of Aβ treated cells dropped to 70% compared to control (100%) reflecting the functional damage to mitochondria. Upon treatment with M3 at two concentrations 20 μM and 50 µM, MMP was improved to 88% and 93%, respectively, which indicated prevention of mitochondrial damage (FIG. 14A).
# Changes in MMP were visualized by treating the cells with Aβ (20 μM) alone and with M3 (50 μM) for 18 h followed by staining with MitoOrange. […] The ability of M3 to modulate Aβ-induced ROS levels in mitochondria was evaluated by the MitoSOX probe. […]
# IL6 = test: Western blot of IL6 in C6 microglia; conditions: LPS 500 ng/mL, Aβ 5 μM, compound 10 μM; changes statistically insignificant
# Method: Western blot analysis was performed to analyse the changes in the protein levels from cell lysates. SH-SY5Y and C6 cells were cultured to 80% confluence in T25 flask, trypsinised and seed into 12 well plate. The cells were cultured for 30 h and then treated with LPS (500 ng/mL) in low serum media for 6 h. Then the cells were treated with Aβ42 (5 μM) alone and with NMIs (M3) (10 μM) for 18 h. The cells were harvested by trypsinisation and the protein was extracted in RIPA lysis buffer with protease inhibitor cocktail (1×). Briefly cells were washed with dPBS and lysed in […] of RIPA lysis buffer with gentle shaking in 4° C. for 30 min. Then the cells were centrifuged at 16000 g for 20 min and the supernatant containing protein was collected and quantified by Bradford assay. The protein lysate was subjected to SDS-PAGE (12% resolving gel) and transferred to PVDF membrane. The blot paper was blocked with 5% skim milk powder for 1 h at room temperature and then washed thrice with TBST. The blots were incubated with primary antibodies for 20 h at 4° C. The blots were washed thrice with TBST for 5 min and then incubated with anti-rabbit HRP-conjugated secondary antibodies for 1 h at room temperature. […] All the western blots were quantified by using ImageJ, data was plotted and analysed by GraphPad prism5. […]
# SH-SY5Y cells [2] = test: Cell rescue from Zn (II)-dependent Aβ toxicity (MTT); conditions: Aβ 10 μM, Zn (II) 20 μM, NMIs 20 μM, 30 h; without compound ~61%
# Method: (§1) Cell rescue from Aβ toxicity by NMIs were assessed in SH-SY5Y cells. The cells were seeded into 96 well plate at cell density of 25,000 cells per well and after 24 h the media was replaced with DMEM-F12 with low serum (2.5% FBS). After 6 h, cells were treated with Aβ (10 μM) alone and with NMIs (20 μM) in low serum media. Different concentrations of compound (10, 20 and 50 μM) were used to treat cells. For metal dependent studies, Aβ (10 μM) with metals (20 μM) in the absence and presence of NMIs (20 μM) was treated. The cells were incubated for 30 h and MTT assay was performed to calculate the percentage cell viability.
# (§2) Further, the effect of concentration of compounds of the present disclosure on the cell rescue was assessed. […] The ability of NMIs to rescue cells from metal-dependent Aβ toxicity were assessed in the presence of Cu (II) and Zn (II). Cells were treated with Aβ (10 μM) along with metal ions (20 μM) and NMIs (20 μM) for 30 h. Aβ in the presence of Cu (II) reduced cell viability to ˜62% and M3 treatment had rescued cells with viability to 85% (FIG. 12C). Aβ with Zn (II) viability reduced to ˜61% and M3 treatment rescued cells by improving the viability to ˜79% (FIG. 12D). […] These in-cellulo experiments confirmed the ability of M3 to effectively rescue neuronal cells from metal-independent and dependent Aβ toxicity.
# SH-SY5Y cells [3] = test: Cell rescue from Cu (II)-dependent Aβ toxicity (MTT)
# Method: as §1, §2
compound,measurement,setting,value
"O=C1c2cccc3c(N(Cc4ccccn4)Cc4ccccn4)ccc(c23)C(=O)N1CCc1ccc(O)c(O)c1 [M3, 6-(bis(pyridin-2-ylmethyl)amino)-2-(3,4-dihydroxyphenethyl)-1H-benzo[de]isoquinoline-1,3(2H)-dione]",MMP relative to control (100%),SH-SY5Y cells [1]; compound 20 μM,88%
same,MMP by fluorescence imaging,SH-SY5Y cells [1]; compound 50 μM,least affected
same,MMP relative to control (100%),SH-SY5Y cells [1]; compound 50 µM,93%
same,IL6 level,IL6,reduced
same,cell viability,SH-SY5Y cells [2],~79%
same,cell viability,"SH-SY5Y cells [3]; Aβ 10 μM, Cu (II) 20 μM, NMIs 20 μM, 30 h, without compound ~62%",85%
same,cell viability,"SH-SY5Y cells [3]; Cu (II)-dependent Aβ toxicity, higher concentration 50 µM, FIG. 13",86%
